Experimental data taken from patent publication US9567339B2, “Primary carboxamides as BTK inhibitors” (AbbVie Inc., priority 2013, dated 2017).

Target: BTK, recombinant human catalytic domain (aa 393-659) (Homo sapiens (Human), UniProt Q06187)
Experiment: In vitro BTK kinase activity measured by time-resolved fluorescence resonance energy transfer (trFRET)
Format: biochemical
Details: read-out: Btk IC50

BTK, recombinant human catalytic domain (aa 393-659), sequence (Q06187 393-659): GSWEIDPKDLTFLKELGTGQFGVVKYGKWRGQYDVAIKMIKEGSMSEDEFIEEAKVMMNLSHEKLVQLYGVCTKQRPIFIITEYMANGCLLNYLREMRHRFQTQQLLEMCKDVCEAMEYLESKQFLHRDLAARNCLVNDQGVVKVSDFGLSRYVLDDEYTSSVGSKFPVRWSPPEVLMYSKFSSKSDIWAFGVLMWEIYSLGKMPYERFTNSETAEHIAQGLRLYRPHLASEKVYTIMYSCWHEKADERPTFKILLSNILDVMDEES

Compound | IC50 [nM]
CCC(=O)Nc1cccc(-c2ccc(C(N)=O)c3[nH]c(C4=CCN(S(C)(=O)=O)CC4)cc23)c1C [D.7.41] | < 100
Cc1c(NC(=O)C2CCN(C)CC2)cccc1-c1ccc(C(N)=O)c2[nH]c(C3=CCN(S(C)(=O)=O)CC3)cc12 [D.7.36] | < 100
CC/C=C(\C)C(=O)Nc1cccc(-c2ccc(C(N)=O)c3[nH]c(C4=CCN(S(C)(=O)=O)CC4)cc23)c1C [D.7.16] | < 100
Cc1c(NC(=O)CC(C)C)cccc1-c1ccc(C(N)=O)c2[nH]c(C3=CCN(S(C)(=O)=O)CC3)cc12 [D.7.35] | < 100

Now from value to molecule:

IC50 [nM] | Compound
< 100 | C=CC(=O)N1CC([C@@H](C)c2ncc(C(N)=O)c3[nH]ccc23)C1 [E.9.28]
< 100 | CC(=O)N1CC=C(c2cc3c(-c4cccc(-n5cnc6ccccc6c5=O)c4C)ccc(C(N)=O)c3[nH]2)C1 [E.8.1]
< 100 | C=CC(=O)N1CCO[C@@H](c2ccc(C(N)=O)c3[nH]c(-c4cnn(C)c4)cc23)C1 [E.9.24]
100 to 1000 | C=CC(=O)N1CC(N(C)c2ccc(C(N)=O)c3[nH]c(C4(O)COC4)cc23)C1 [E.9.22]
< 100 | C=CC(=O)N1CC[C@H](c2ccc(C(N)=O)c3[nH]c(-c4cnn(C)c4)cc23)C1 [E.9.48]
< 100 | C=CC(=O)NCc1ccccc1-c1ccc(C(N)=O)c2[nH]c(C3=CCN(S(C)(=O)=O)CC3)cc12 [E.1.1]
100 to 1000 | CC(=O)C(=O)NCc1cccc(-c2ccc(C(N)=O)c3[nH]ccc23)c1 [E.7.2]
100 to 1000 | C=CC(=O)Nc1cc(C#N)cc(-c2ccc(C(N)=O)c3[nH]ccc23)c1 [E.1.26]
100 to 1000 | Cn1cc(-c2cc3c(N4CCC[C@@H](NC(=O)c5ccc(C(F)F)cc5)C4)ccc(C(N)=O)c3[nH]2)cn1 [O.1.22*]
< 100 | Cn1cc(-c2cc3c(-c4cccc(-n5cnc6ccc(F)cc6c5=O)c4CO)ccc(C(N)=O)c3[nH]2)cn1 [M.1.1]
1000 to 10000 | C=CC(=O)N1C[C@@H](CO)C[C@H](c2ccc(C(N)=O)c3[nH]ccc23)C1 [E.9.46]
< 100 | C=CC(=O)Nc1cc(-c2ccc(C(N)=O)c3[nH]ccc23)c(F)cc1F [E.1.22]
100 to 1000 | Cn1cc(-c2cc3c(N4CCC[C@@H](n5cnc6ccccc6c5=O)C4)ccc(C(N)=O)c3[nH]2)cn1 [O.1.16*]
100 to 1000 | Cc1c(NC(=O)c2nccs2)cccc1-c1ccc(C(N)=O)c2[nH]c(-c3ccccc3CNC(=O)CCl)cc12 [E.4.1]
100 to 1000 | Cc1c(NC(=O)/C=C/CN2CCCCC2)cccc1-c1ccc(C(N)=O)c2[nH]ccc12 [J.1.1]

Same assay, conditions: trFRET, 0.001 mM ATP, biotin-TYR1 peptide substrate; read-out: Btk IC50

Compound | IC50 [nM]
Cc1c(-c2ccc(C(N)=O)c3[nH]c(C4=CCN(S(C)(=O)=O)CC4)cc23)cccc1-n1cnc2ccc(F)cc2c1=O [A.4.19] | < 100
Cc1ccc(NC(=O)c2nccs2)cc1-c1ccc(C(N)=O)c2[nH]c(-c3cccnc3)cc12 [A.7.7] | 1000 to 10000
C=CC(=O)Nc1cccc(-c2ccc(C(N)=O)c3[nH]ccc23)c1 [A.5.2] | 100 to 1000
Cc1c(-c2ccc(C(N)=O)c3[nH]c(C4=CCN(S(C)(=O)=O)CC4)cc23)cccc1N1CCc2ccccc2C1=O [A.4.6] | < 100
CC(=O)N1CC=C(c2cc3c(-c4cccc(NC(=O)c5nccs5)c4C)ccc(C(N)=O)c3[nH]2)CC1 [A.3.4] | < 100
NC(=O)c1ccc(-c2ccnc(N)c2)c2cc[nH]c12 [A.5.3, 4-(2-aminopyridin-4-yl)-1H-indole-7-carboxamide] | 1000 to 10000
Cc1c(NC(=O)CCN2CCOCC2)cccc1-c1ccc(C(N)=O)c2[nH]ccc12 [D.8.13] | 1000 to 10000
C/C=C/C(=O)Nc1cccc(-c2ccc(C(N)=O)c3[nH]ccc23)c1C [D.8.9] | 100 to 1000
CCOC(=O)/C=C/C(=O)Nc1cccc(-c2ccc(C(N)=O)c3[nH]ccc23)c1C [D.8.1] | < 100
NC(=O)c1ccc(-c2cncc(N)c2)c2cc[nH]c12 [A.5.4, 4-(5-aminopyridin-3-yl)-1H-indole-7-carboxamide] | 1000 to 10000
C=CC(=O)N1CCC[C@@H](c2ccc(C(N)=O)c3[nH]ccc23)C1 [30 (S), (S)-4-(1-acryloylpiperidin-3-yl)-1H-indole-7-carboxamide] | < 100
C=CC(=O)Nc1cccc(-c2ccc(C(N)=O)c3[nH]c(-c4ccc(C(=O)OC)cc4)cc23)c1C [A.1.20] | < 100
CCNC(=O)/C=C/C(=O)Nc1cccc(-c2ccc(C(N)=O)c3[nH]ccc23)c1 [D.4.3] | 1000 to 10000

The next lines start with the values.

IC50 [nM] | Compound
100 to 1000 | CC(=O)N1CCC(c2cc3c(-c4cccc(N)c4C)ccc(C(N)=O)c3[nH]2)CC1 [L.1, 2-(1-Acetylpiperidin-4-yl)-4-(3-amino-2-methylphenyl)-1H-indole-7-carboxamide]
100 to 1000 | NC(=O)c1ccc(I)c2cc(-c3cccnc3)[nH]c12 [F.1, 4-iodo-2-(pyridin-3-yl)-1H-indole-7-carboxamide]
1000 to 10000 | Cc1c(N)cccc1-c1ccc(C(N)=O)c2[nH]ccc12 [Example 16, 4-(3-Amino-2-methylphenyl)-1H-indole-7-carboxamide]
